Test system: 6-hydroxydopamine (6-OHDA) injury Parkinson's Disease mouse model
Assay: Apomorphine-induced rotational behavior in unilateral striatal 6-OHDA injury mice
Type: in vivo
Conditions: intraperitoneal injection, 300 μL, 0.065 mg/mL, two weeks post-injury
Protocol: The details of these experiments are described below.
The mice underwent unilateral striatal 6-hydroxydopamine (6-OHDA) injection (3.2 μg/μL, 0.5 μL/min) according to Francardo et al. (Neurobiol. Dis. 42:327-340, 2011). […] The placement of a SEM graft over the skull of the mice was performed as described above. The duration of rotational behavior was determined in the treated mice.
The position of the mice was recorded by a camera (while they move freely in an arena). The number of contralateral rotations per minute was quantified using a custom analysis program written in Matlab and C++. Statistical analyses were performed using a Student's t-test to compare results between treatment groups (Stata v6.0).

Question: `CN1CCc2cccc3c2[C@H]1Cc1ccc(O)c(O)c1-3` [apomorphine] was tested. Which “rotational behavior (contralateral turns per minute)” value did it give?
Answer: The value was “increased”.
